The text below walks through data of US20210228509A1 (Nacuity Pharmaceuticals, Inc., priority 2020, published 2021).

A word on the Ki: it is a measure of affinity in units of concentration, obtained from inhibition or displacement.

In one series the test system is isolated rat lens. The series is described as follows: Inhibition of oxidation of isolated rat lenses (H2O2 cataract model). In kind it is cell-based, Wistar rat. Conditions: 10 mM, 24 hour incubation, then 0.5 mM H2O2 24 hours; compared to control (FIG. 1). How it is done: Protocol for inhibition of oxidation of isolated rat lenses. Three-week old Wistar rat eyes were enucleated and lenses micro-dissected in Dulbecco's modified eagle's medium (low glucose) (DMEM-F12). Lenses were handled using only custom-made glass loops to avoid changes in transparency and placed in 1 mL DMEM with 1% penicillin/streptomycin/neomycin. Lenses were placed in a culture incubator set at 37° C./5% CO2 for one hour. Then lenses were imaged under darkfield and brightfield (grid) to ensure they are still transparent before adding vehicle (H20), 10 mM NACA (solution), or 10 mM diNACA (suspension). Lenses were then imaged at a 6-hour time period to ensure transparency was maintained, then incubated for another 18 hours, then imaged again (total 24 hour incubation). Media was collected and fresh media was added to the wells. 0.5 mM H2O2 (warmed at 37 deg C) was added and left for a further 24-hour incubation. Lenses were imaged, media collected, lenses weighed and flash frozen in tared vials and submitted for further analysis

A further series deals with isolated porcine lenses. The series is described as follows: Inhibition of oxidation of isolated porcine lenses (H2O2-induced cataract). In kind it is cell-based, pigs. Conditions: for inhibition of H2O2-induced cataract: 24 hours pre-incubation, then 600 μM H2O2 with glucose oxidase 6 hours (FIG. 2); for efficacy against H2O2-induced cataract relative to NAC: FIG. 2. How it is done:
Protocol for inhibition of oxidation of isolated porcine lenses. Fresh eyes from pigs were obtained from Sierra For Medical Science. Lenses were first incubated in medium 199 (Sigma-Aldrich, St. Louis, Mo., USA) and 1% pig serum in a 12-well plate for two hours. At the end of the incubation, lenses were imaged under darkfield microscopy and only clear, transparent lenses were used for further experimentation. Lenses were then pre-incubated with NAC, NACA or diNACA for 24 hours. After pretreatment, lenses were transferred to media containing 600 μM H2O2 which was supplemented with glucose oxidase (GO) for maintaining a constant H2O2 level during further incubation for 6 hours [Wang G M, Raghavachari N, Lou M F. Relationship of protein-glutathione mixed disulfide and thioltransferase in H2O2-induced cataract in cultured pig lens. Exp Eye Res. 1997 May; 64(5):693-700. doi: 10.1006/exer.1996.0251. PMID: 9245898.]. At the end of the 6-hour incubation, lenses were imaged under darkfield microscopy

The test system of the next series is human melanocytes. Conditions: cited from earlier work.
For series [1], the system named is healthy human skin explants. Conditions: healthy human skin explants exposed to UV-radiation; cited from earlier work.
The target in a further series is tyrosinase (Homo sapiens, UniProt P14679). Conditions: cited from earlier work.
Series [2] has as its system human retinal pigment epithelial cells. Conditions: cited from earlier work.
For another series, the system named is mouse model of RP. Conditions: compared with NAC; cited from earlier work.
Series [3] relates to sodium selenite-induced cataracts. Conditions: in vivo; cited from earlier work.
In series [4] the test system is J-buthionine-(S,R)-induced cataracts. Conditions: in vivo; cited from earlier work.
Series [5] concerns rats with unilateral 6-OHDA-induced nigral lesion. Conditions: cited from earlier work.
The test system of series [6] is mice treated with 1-methyl-4-phenyl-1,2,3,6,-tetrahydropyridine. Conditions: MPTP-treated mice; cited from earlier work.
Series [7] relates to rats given chronic intrajugular rotenone. Conditions: chronic intrajugular rotenone in rats; cited from earlier work.
The subject of another series is CD-1 mice. Conditions: gp120+Tat+METH; cited from earlier work.
In series [8] the test system is olfactory bulbectomized rats. Conditions: cited from earlier work.
The subject of series [9] is blood cells from β-thalassemic patients. Conditions: cited from earlier work.
The next series concerns β-thalassemic mice. Conditions: intra-peritoneal injection, 150 mg/kg; cited from earlier work.
For a further series, the system named is RBCs. Conditions: compared with NAC; cited from earlier work.
For series [10], the target named is glutamate cysteine ligase (GCL, EC 6.3.2.2). Conditions: read-out: Ki, nonallosteric competitive inhibition of GCL; cited from earlier work.
In another series the test system is patients with presbyopia. Conditions: first-in-human trial in presbyopes; cited from earlier work.
Another series deals with human cadaver lenses. Conditions: in vitro; cited from earlier work.
In another series the test system is rabbit eyes. Conditions: in vivo; cited from earlier work.
The test system of another series is RP patients. Conditions: oral high dose NAC, cited from earlier work.
Another series concerns alcohol-preferring rats. Conditions: alcohol re-access after deprivation, 60 minutes; untreated 95 to 100 mg/dL; cited from earlier work.
The conditions of series [11]: humans, oral dose of 600 mg; cited from earlier work.
Series [12] relates to corneal endothelial cells. Conditions: cell culture; cited from earlier work.
In the next series the test system is mouse model. Conditions: cited from earlier work.
Series [13] can be described thus: Topical ocular study in rabbit (NACA in aqueous humor, ocular tolerability). The format is in vivo, Dutch Belted rabbits. How it is done:
Example 2: Topical Ocular Study in Rabbit. An IACUC-approved study evaluated diNACA or NACA topical ocular dosing in rabbit. Ophthalmic formulations were developed containing either 1% diNACA or 1% NACA that were used for repeated topical ocular instillation to Dutch Belted rabbits. Animals were dosed four times a day at approximately 8:00 AM, 11 AM, 2 PM, and 4:00 PM on days 1-6, and once on Day 7 at approximately 8:00 AM, via bilateral topical administration. Ocular tolerability was assessed at baseline and prior to the first daily dose by means of scoring chemosis, discharge, and hyperemia (Draize scoring). Ocular tissue was harvested at necropsy (day 7). A qualified analytical LC-MS method was developed and used to quantitate NACA levels in aqueous humor (AH).

Series [14] can be described thus: Oral dose study in rat (plasma levels). The format is in vivo, male Sprague-Dawley rats. Conditions: oral gavage diNACA 200 milligrams per kilogram (FIG. 5). How it is done: DiNACA as a Prodrug to NACA and NAC. Example 1: Oral Dose Study in Rat. An IACUC (Institutional Animal Care and Use Committee)-approved study evaluated diNACA dosed via oral gavage in male Sprague-Dawley rats. diNACA was weighed into individual tubes. The tubes were capped and stored at room temperature overnight. Rats were weighed. An appropriate amount of phosphate buffered saline pH 7.0 was added to each tube to achieve the desired diNACA concentration as a suspension. Blood specimens were collected from the tail vein at specified time points and processed to produce plasma. Plasma specimens were analyzed using a validated liquid chromatographic mass spectrometric procedure (King B; Vance J; Wall G M; Shoup R. Quantitation of free and total N-acetylcysteine amide and its metabolite N-acetylcysteine in human plasma using derivatization and electrospray LC-MS/MS. J Chrom B 2019; 1109:25-36.).

Series [15] is described as follows: Intravitreal dose study in rabbit (diNACA implant). The format is in vivo, Female New Zealand White rabbits. How it is done:
Example 3: Intravitreal Dose Study in Rabbit. An IACUC-approved study evaluated intravitreally (IVT) dosed diNACA in rabbit. A standard sterile intravitreal implant containing diNACA was prepared. Female New Zealand White rabbits were administered IVT with a di-NACA implant at a dose of 0.8 mg/eye. One group of animals received IVT placebo implants without any test article. Clinical ophthalmic examinations were performed at baseline and on Days 8 and 23 post-dose. General health observations were performed daily. Body weights were recorded at baseline and prior to termination. Animals were euthanized on Day 8, 15, or 23, and tissue was collected and submitted for bioanalysis. […] Observations of conjunctival bulging, discharge, and minimal hemorrhaging were determined to be related to the injection procedure and resolved in most eyes on the day after dosing.

Where [16] appears, read: vitreous humor (FIG. 6, FIG. 7).

tyrosinase, sequence (P14679 19-529, species assumed): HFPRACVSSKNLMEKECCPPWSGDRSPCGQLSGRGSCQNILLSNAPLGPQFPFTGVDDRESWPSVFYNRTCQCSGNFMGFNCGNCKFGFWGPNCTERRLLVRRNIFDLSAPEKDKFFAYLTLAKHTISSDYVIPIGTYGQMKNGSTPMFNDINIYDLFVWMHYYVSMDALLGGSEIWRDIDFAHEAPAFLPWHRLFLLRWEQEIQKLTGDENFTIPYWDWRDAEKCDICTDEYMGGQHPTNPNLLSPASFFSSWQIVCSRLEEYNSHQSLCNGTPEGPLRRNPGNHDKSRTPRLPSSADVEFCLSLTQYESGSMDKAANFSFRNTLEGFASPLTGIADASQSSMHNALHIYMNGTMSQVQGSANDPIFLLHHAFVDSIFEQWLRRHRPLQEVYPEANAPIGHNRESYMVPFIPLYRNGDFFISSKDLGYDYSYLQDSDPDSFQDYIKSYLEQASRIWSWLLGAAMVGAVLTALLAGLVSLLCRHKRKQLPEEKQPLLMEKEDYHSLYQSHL

Regarding `CC(=O)N[C@@H](CS)C(N)=O`, the “inhibition of oxidative formation of cataract (opacity)” value in the series on isolated rat lens was “inhibit oxidative formation of cataract (opacity)”. For the same compound, in the series with isolated porcine lenses, the “inhibition of H2O2-induced cataract” value was “dose-dependently inhibit H2O2-induced cataract” and the “efficacy against H2O2-induced cataract relative to NAC” value is listed as “greater efficacy than NAC”. Also, the melanin production result in the series on human melanocytes is “inhibited melanin production”. Also, the “glutathione and NAC in skin” value in series [1] was “increased glutathione and NAC”. Besides, at tyrosinase, the “inhibition of tyrosinase activity” value is given as “significant inhibition of tyrosinase activity was observed in a dose responsive manner”. The “protection against oxidative stress-induced cellular injury and death” value in series [2] was “protected against oxidative stress-induced cellular injury and death”. In addition, the “improvement of visual parameters” value in the series on mouse model of RP was “to a greater extent than NAC”. Also, the “inhibition of sodium selenite-induced cataracts” value in series [3] was “inhibit”. Further, the “inhibition of buthionine sulfoximine-induced cataracts” value in series [4] is on record as “inhibit”. Also, in series [5], the amphetamine-induced rotational behaviour entry is given as “suppressed amphetamine-induced rotational behaviour”. Also, in series [6], the “reduction in striatal dopamine levels” value was “attenuated the reduction in striatal dopamine levels”. Moreover, the dopaminergic neuronal loss result in series [7] was “reduced dopaminergic neuronal loss”. Also, in the series on CD-1 mice, the “rescue from oxidative stress (GSH, MDA)” value is on record as “significantly rescued the animals from oxidative stress”. The cocaine-seeking behavior result in series [8] was “blocked cocaine-seeking behavior”. In [9] (both in vitro and in vivo), the “reduction of oxidative stress markers in thalassemic cells relative to NAC” value is on record as “superior to NAC”. In series [9] (in vitro treatment), the “reactive oxygen species (ROS) of blood cells” value is given as “reduced their reactive oxygen species (ROS)”; the “reduced GSH content of RBC, platelets and PMN leukocytes” value is on record as “elevated the reduced GSH content”. The “parameters of oxidative stress” value in the series with β-thalassemic mice was “significantly reduced the parameters of oxidative stress”. The “BuOOH-induced intracellular oxidation, thiol depletion and hemoglobin oxidation in RBCs” value in the series on RBCs is on record as “superior to NAC”.
On to `N[C@@H](CCC(=O)N[C@@H](CS)C(=O)NCC(=O)O)C(=O)O` [GSH, c-L-glutamyl-L-cysteinyl-glycine], for which the Ki in series [10] is 2300 µM.
Turning to `C[N+](C)(C)CCOC(=O)CCCC[C@@H]1CCSS1` [LACE, lipoic acid choline ester], in the series on patients with presbyopia, the “near visual acuity (DCNVA) improvement compared to placebo” value was “statistically significant”. Besides, the “lens softening and deformability” value with human cadaver lenses is “lens softening and an increase in lens deformability”; in the series on rabbit eyes, “lens softening and an increase in lens deformability”.
Take `CC(=O)NC(CS)C(=O)O` (stereo not drawn) [NAC, 2-acetamido-3-sulfanylpropanoic acid]: in the series with isolated porcine lenses, the “inhibition of H2O2-induced cataract” value was “dose-dependently inhibit H2O2-induced cataract”. Also, the “improvement of visual acuity” value in the series on RP patients (RP patients (n=30), p<0.05) is recorded as 2-5 letters. For the same compound, the “aqueous humor concentrations of NAC” value with RP patients (RP patients) is reported as “increased aqueous humor concentrations of NAC”. The “reduction of relapse-drinking blood alcohol levels” value in the series on alcohol-preferring rats is listed as 60%. In series [11], the plasma half-life was 2.5 h and the “time after administration at which no NAC is detectable” value was 10 to 12 h. Moreover, the corneal endothelial survival result in series [12] was “increased corneal endothelial survival”. For the same compound, in the series on mouse model, the corneal endothelial survival entry is recorded as “increased corneal endothelial survival”.
In the case of `CC(=O)Oc1ccccc1C(=O)O` [aspirin], the “reduction of relapse-drinking blood alcohol levels” value in the series with alcohol-preferring rats is given as 60%.
As to `CC(=O)NC(CSSCC(NC(C)=O)C(N)=O)C(N)=O` [diNACA, (2R,2R′)-3,3′-disulfanediyl bis(2-acetamidopropanamide)], the “penetration into the eye (aqueous humor)” value in [13] (topical ocular dosing) is “penetrates the eye”. Further, the “prodrug delivery of NACA to aqueous humor” value in series [13] (topical ocular dosing of 1% diNACA) was “served as a prodrug to deliver NACA to the AH”. Besides, the “inhibition of oxidative formation of cataract (opacity)” value in the series on isolated rat lens was “inhibit oxidative formation of cataract (opacity)”. Moreover, in the series on isolated porcine lenses, the “inhibition of H2O2-induced cataract” value was “dose-dependently inhibit H2O2-induced cataract” and the “efficacy against H2O2-induced cataract relative to NAC” value is on record as “greater efficacy than NAC”. In series [14], the “bioavailability after oral administration” value is recorded as “bioavailable”; the “levels in rat plasma after oral diNACA” value was “significant levels of diNACA, NACA and NAC”. In series [15] (IVT implant 0.8 mg/eye), the “effects on general, non-ocular health or on body weights” value was “No serious adverse effects” and the “ocular findings on the day of dosing” value is on record as “minimal ocular findings”. Further, the “tolerability of IVT delivery” value in series [15] (IVT implant 0.8 mg/eye, up to Day 23) is given as “generally well tolerated”. Moreover, in [15] (setting [16]), the “elution into vitreous humor from IVT implant” value is listed as “eluted into the VH”; the “metabolites in vitreous humor after diNACA IVT implant” value is “presence of NACA and significant concentrations of NAC in the VH”. Also, in the series on human melanocytes, the melanin production result was “inhibited melanin production”. Besides, the “glutathione and NAC in skin” value in series [1] is “increased glutathione and NAC”. The “inhibition of tyrosinase activity” value on tyrosinase is given as “significant inhibition of tyrosinase activity was observed in a dose responsive manner”.
